Test results: US8835403B2, “Algin oligosaccharides and the derivatives thereof as well as the manufacture and the use of the same” (priority 2004, dated 2014)

Experiments:
Aβ = Aβ (Homo sapiens, UniProt P05067); test: Binding site of 6-mer on Aβ (further studies)
Aβ1-40 = Aβ1-40 (Homo sapiens, UniProt P05067); test: Conformation of Aβ1-40 by CD spectra; format: biochemical; settings: 6-mer 100 μg/ml, Aβ1-40 250 μg/ml, 37° C., 12 h (FIG. 11C)
Experimental: CD spectra (J-[…], JASCO, Japan) of monomeric Aβ1-40 (250 μg/ml in TBS (100 mM Tris, 50 mM NaCl, pH7.4)) incubated at 37° C. for 12 h is mainly characterized by β-sheet secondary structure (FIG. 11A).

Aβ1-40 fibril = Aβ1-40 fibril (Homo sapiens, UniProt P05067); test: Destability of preformed Aβ1-40 fibril (TEM); format: biochemical; settings: Aβ1-40 aged 7 d, then 6-mer for additional 3 days (FIG. 10C)
Aβ1-40 fibril, sequence (P05067 672-711 limits assumed): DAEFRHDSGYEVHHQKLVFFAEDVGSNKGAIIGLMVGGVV
Experimental: 1 mg/ml of distilled water-resolved Aβ1-40 is aged at 37° C. for 7d, after which it is exposed to 6-mer for 3 days.

ChAT = test: Cerebral cortex ChAT activity of Aβ1-40-induced AD mice; format: in vivo
SOD = SOD activity of cerebral cortex and hippocampus of Aβ1-40-induced AD mice; format: in vivo
SH-SY5Y cells = test: Apoptosis of SH-SY5Y induced by Aβ25-35 (propidium iodide flow cytometry); format: cell-based; settings: 30 μM aged Aβ25-35 48 h, Aβ alone 24.8±1.9%
Experimental: SH-SY5Y cells are incubated in 6-well plates at a density of 2×10^5 cells per well. The day after plating, cells are pretreated with varying concentrations (0, 50, 100 μg/ml) of 6-mer for 24 h, followed by the addition of 30 μM aged Aβ25-35 (purchased from Sigma. Co.). After 48 h at 37° C., cells are digested, collected, washed, centrifuged at 1200 rpm and incubated with […] of a mixture of 5 mg/ml propidium iodide (Hyclone Co.) and 100 U/ml RNase (Hyclone Co.). Then the cells are measured by flow cytometry (BD Co., US), with 8000 cells per sample

[1] = tested on: primary cerebral cortex neurons of rat; test: Protection of primary neurons impaired by aged Aβ25-35 (MTT); format: cell-based; settings: 30 μM aged Aβ25-35 24 h, Aβ alone 54.5±8.9%
Experimental: The primary cerebral cortex neurons of rat are cultured as the method of reference (Banker G A, et al., Rat hippocampal neurons in dispersed cell culture. Brain Res, 1977, 126:397-425). The cells cultured for 1 week are used in this experiment. That is to say, on the 8th day the cells are pretreated with a series of concentrations of 6-mer (final concentration of 0, 10, 50, 100 μg/ml) for 24 h, followed by the addition of aged Aβ25-35 (Firstly resolved in distilled water with a concentration of 1 mg/ml, then stayed at 37° C. for 7 days to get aged Aβ25-35 and stored at −20° C. for use) with a final concentration of 30 μM. After 24 h at 37° C., 10 μl of MTT with a concentration of 5 mg/ml is added. After 4 h at 37° C., the supernatant is removed and 150 μl of DMSO is added. Then the absorbance at 570 nm (630 nm as reference) is recorded with an ELISA reader (Rainbow, TECAN, Austria).

[2] = tested on: AD mice induced by Aβ1-40; test: Morris water maze test of AD mice induced by Aβ1-40; format: in vivo; settings: for Escape latency (s) 1st day: 1st day of test; for Escape latency (s) 2nd day: 2nd day of test; for Escape latency (s) 3rd day: 3rd day of test; for Latency bias(%): probe trial, 4th day, within 60 s
Experimental: Male Balb/c mice (18-22 g, purchased from Laboratory Centre of Shandong University) are weighed and randomly assigned to six groups as follows: a control group, a model group, a low-concentration (15 mg/kg) 6-mer-treated group, a middle-concentration (30 mg/kg) 6-mer-treated group, a high-concentration (60 mg/kg) 6-mer-treated group, and a Huperzine A-treated (HBY, with a concentration of 0.2 mg/kg) group. The mice were oral administered with corresponding drugs on day 3 after grouping. The drugs were administered once a day consecutively with a dosage of 0.5 ml/20 g until the experiment is completed. The mice of control and model groups were simultaneously administered with an equivalent amount of normal saline.
On the 8th day after drug administration, mice are injected with aged Aβ1-40 except the vehicle group as the method of reference (Jhoo J H et al., β-amyloid (1-42)-induced learning and memory deficits in mice: involvement of oxidative burdens in the hippocampus and cerebral cortex. Behavioural Brain Research (2004) 155: 185-196) to induce the AD model. Aged Aβ1-40 solution is injected into the right cerebral ventricle. […] However, on the 1st day of test, this increased escape latency is shortened in all drug-treated groups except the group treated with 15 mg/kg of 6-mer. And the escape latency of 60 mg/kg 6-mer-treated group has statistical significance compared with that of the model group (P<0.05). On the 2nd and 3rd day of test, the escape latency of all drug-treated groups are shortened, wherein that of 60 mg/kg 6-mer-treated group and HBY-treated group have statistical significance compared with that of the model group (P<0.05).
On the 4th day of Morris water maze test, the original plate is removed and the percentage of time of mice staying at the phase of original plate within 60 s is recorded.

[3] = tested on: human pancreatic beta-cells cell line NIT; test: Protection of pancreatic beta-cell line NIT impaired by amylin (MTT); format: cell-based; settings: 6-mer 10, 50, 100 μg/ml 24 h pretreatment, 30 μM aged amylin 48 h (FIG. 12)
Experimental: The human pancreatic beta-cells cell line NIT is cultured with DMEM medium containing 10% FBS. The cells are incubateded into 96-well plates in density of 1×10^4 cells/well. The day after plating, they are pretreated with varying concentrations of 6-mer (final concentration of 0, 10, 50, 100 μg/ml) for 24 h, followed by the addition of aged amylin with a final concentration of 30 μM. After 48 h at 37° C., the survival of the cells is measured by MTT method.

[4] = 50 μg/ml 6-mer 24 h pretreatment
[5] = 100 μg/ml 6-mer 24 h pretreatment

Aβ1-40, sequence (P05067 672-711 limits assumed): as above

**Q.** Which “binding site on Aβ25-35” value (Aβ) does the source give for `O=C(O)C1OC(OC2C(C(=O)O)OC(OC3C(C(=O)O)OC(OC4C(C(=O)O)OC(OC5C(C(=O)O)OC(OC6C(C(=O)O)OC(O)C(O)C6O)C(O)C5O)C(O)C4O)C(O)C3O)C(O)C2O)C(O)C(O)C1O` (stereo not drawn) [6-mer, mannuronic hexasaccharide] here?
**A.** Its value is “Ser26˜Lys28”.

**Q.** What about the “β-sheet formation of monomeric Aβ1-40 (CD)” value (Aβ1-40) of the same compound?
**A.** The value was “prevents the β-sheet formation”.

**Q.** And the “effect on preformed Aβ1-40 fibers (TEM)” value (Aβ1-40 fibril)?
**A.** Its value is “turned into small irregular short fibers”.

**Q.** What about the “ChAT activity (pmol/mg prot./min)” value (ChAT; 15 mg/kg) of the same compound?
**A.** The value was 90.94 ± 3.77 pmol/mg prot./min.

**Q.** And the “ChAT activity (pmol/mg prot./min)” value (ChAT; 30 mg/kg)?
**A.** The value was 99.98 ± 5.07 pmol/mg prot./min.

**Q.** What about the “ChAT activity (pmol/mg prot./min)” value (ChAT; 60 mg/kg) of the same compound?
**A.** The value was 94.69 ± 5.83 pmol/mg prot./min.

**Q.** And the “SOD activity (NU/mg prot.) cerebral cortex” value (SOD; 15 mg/kg)?
**A.** Its value is 49.35 ± 2.27 NU/mg prot.

**Q.** What about the “SOD activity (NU/mg prot.) cerebral cortex” value (SOD; 30 mg/kg) of the same compound?
**A.** Its value is 51.84 ± 2.07 NU/mg prot.

**Q.** What about the “SOD activity (NU/mg prot.) cerebral cortex” value (SOD; 60 mg/kg) of the same compound?
**A.** The value was 57.50 ± 2.51 NU/mg prot.

**Q.** And the “SOD activity (NU/mg prot.) hippocampus” value (SOD; 15 mg/kg)?
**A.** The value was 69.76 ± 6.12 NU/mg prot.

**Q.** What about the “SOD activity (NU/mg prot.) hippocampus” value (SOD; 30 mg/kg) of the same compound?
**A.** The value was 61.72 ± 4.27 NU/mg prot.

**Q.** What about the “SOD activity (NU/mg prot.) hippocampus” value (SOD; 60 mg/kg) of the same compound?
**A.** The value was 79.97 ± 7.34 NU/mg prot.

**Q.** What about the “percentage of hypodiploid cells” value (SH-SY5Y cells; [4]) of the same compound?
**A.** Its value is 10.2±1.3%.

**Q.** And the “percentage of hypodiploid cells” value (SH-SY5Y cells; [5])?
**A.** The value was 5.1±0.7%.

**Q.** What about the survived rate ([1]; 10 μg/ml 6-mer 24 h pretreatment) of the same compound?
**A.** The survived rate was 72.0±11.2%.

**Q.** What about the survived rate [1, 4] of the same compound?
**A.** Its survived rate is 77.1±8.1%.

**Q.** What about the survived rate [1, 5] of the same compound?
**A.** Its survived rate is 82.3±11.6%.

**Q.** And the “Escape latency (s) 1st day” value ([2]; 6-mer 15 mg/kg oral once a day)?
**A.** The value was 90.07 ± 10.71 s.

**Q.** What about the “Escape latency (s) 2nd day” value ([2]; 6-mer 15 mg/kg oral once a day) of the same compound?
**A.** The value was 83.29 ± 9.53 s.

**Q.** And the “Escape latency (s) 3rd day” value ([2]; 6-mer 15 mg/kg oral once a day)?
**A.** The value was 72.83 ± 12.50 s.

**Q.** What about the “Escape latency (s) 1st day” value ([2]; 6-mer 30 mg/kg oral once a day) of the same compound?
**A.** Its value is 77.71 ± 8.69 s.

**Q.** What about the “Escape latency (s) 2nd day” value ([2]; 6-mer 30 mg/kg oral once a day) of the same compound?
**A.** Its value is 71.69 ± 10.11 s.

**Q.** And the “Escape latency (s) 3rd day” value ([2]; 6-mer 30 mg/kg oral once a day)?
**A.** The value was 68.45 ± 14.46 s.

**Q.** What about the “Escape latency (s) 1st day” value ([2]; 6-mer 60 mg/kg oral once a day) of the same compound?
**A.** The value was 56.92 ± 9.92 s.

**Q.** And the “Escape latency (s) 2nd day” value ([2]; 6-mer 60 mg/kg oral once a day)?
**A.** The value was 63.57 ± 10.54 s.

**Q.** What about the “Escape latency (s) 3rd day” value ([2]; 6-mer 60 mg/kg oral once a day) of the same compound?
**A.** Its value is 62.50 ± 13.10 s.

**Q.** What about the “Latency bias(%)” value ([2]; 15 mg/kg) of the same compound?
**A.** Its value is 19.67 ± 5.15%.

**Q.** And the “Latency bias(%)” value ([2]; 30 mg/kg)?
**A.** The value was 22.99 ± 5.79%.

**Q.** And the “Latency bias(%)” value ([2]; 60 mg/kg)?
**A.** The value was 28.44 ± 6.08 %.

**Q.** What about the “survived cells impaired by amylin” value [3] of the same compound?
**A.** Its value is “increase the survived cells impaired by amylin in a dose-dependent manner”.
